Test system: shock induced in lab rodents
Test: Survival of lab rodents after induced shock, treated with digestive enzyme inhibitor
Format: in vivo, rodent
Description: The present invention is based on the latest research using rodent models of human hemorrhagic shock. Here it has been discovered that the sudden lowering of blood pressure that occurs in people suffering from […] can provoke the body's digestive enzymes to break down the body's own intestinal and other tissues as if it were food. Such enzymes' abnormal actions may be defined as “auto-digestion.” Auto-digestion is dangerous because not only does it injure healthy tissue but also contributes to multi-organ failure, which can be fatal.
The healthy cells of the animals' intestinal tissue react to auto-digestion by releasing a slew of substances that can be toxic to the heart and other body organs. These substances, termed cytotoxic mediators, can reach these body organs via the blood stream. In recent studies, shock was induced in 19 lab rodents, all of which were then treated with therapies that mirror the emergency room care given to many human patients who suffer shock, which typically occurs when blood flow to the heart, lungs and other body organs is slowed as a result of trauma, dehydration, heart attack, stroke or radiation.
A total of 10 of the 19 lab rodents in shock were also treated with the experimental digestive enzyme inhibitor called ANGD. […] However, only one of the nine “untreated” animals in shock survived. […]

## CS(=O)(=O)O.CS(=O)(=O)O.N=C(N)Nc1ccc(C(=O)Oc2ccc3cc(C(=N)N)ccc3c2)cc1 [ANGD]
10 of 19 lab rodents in shock treated with ANGD plus basic shock care, one of nine untreated survived
  animals surviving: Eight of the ten survived
Lab animals in which shock had been induced
  survival rate: dramatically improved the survival rate

— patent US20100179091A1, “Treatment of Conditions Related to Shock” (THE REGENTS OF THE UNIVERSITY OF CALIFORNIA, priority 2007, published 2010)
